# Test results as given in article PMC9587990, “Molecular basis for isoform-selective inhibition of presenilin-1 by MRK-560” (Nature Communications, 2022).
# Where “and” joins values, the source holds several entries; their conditions need not be identical. Equal entries are not always repeated. Where two headings read alike, the source gives them in different places.
# Tests used:
# Experiment in all cases: in vitro cleavage assay, Aβ40 production by AlphaLISA
# Assay type in all cases: biochemical
# [1] = biological target: T1, PS1 L282I γ-secretase complex (Homo sapiens, UniProt P49768, L282I); details: for remaining activity at 0.002 µM / remaining activity at 0.01 µM / remaining activity at 0.04 µM / remaining activity at 0.2 µM / remaining activity at 1 µM / remaining activity at 10 µM: 4 h; for remaining activity at 0.002 µM / remaining activity at 0.01 µM / remaining activity at 0.04 µM / remaining activity at 0.2 µM / remaining activity at 1 µM / remaining activity at 10 µM / Caculated Aβ40 production / raw data from α-Lisa reading: PS1 L282I
# T1 construct: made in house
# Experimental: (§1) In total we generated six variants, including single and double residue swapping of Thr281/Leu282 in PS1 with Pro287/Ile288 in PS2, respectively. MRK-560 response to the six PS1/PS2 mutant-containing complexes, each purified to homogeneity, was examined in the in vitro cleavage assay (Fig. 4). All proteins used for the activity assay were sub-cloned, expressed and purified as described. Protein concentration was determined using the Bradford method. […] The cleavage reaction was conducted at 37 °C for 4 h. The cleaved products of these substrates were detected using a monoclonal antibody (1:1000 dilution, CW0299, CWBio) against the C-terminal Myc tag. Aβ40 production was detected using the AlphaLISA assay (PerkinElmer) as described. The IC50 values and the inhibition curves were calculated using Prism 8.0. Statistical analysis of Aβ40 was performed using Prism 8 (GraphPad Software, San Diego, CA, USA). IC50 were determined by a four-parameter logistic regression. The statistical details can be found in Figs. 1, 4 and legends. Data are expressed as mean ± SD.
# [2] = biological target: T2, PS1 T281P γ-secretase complex (Homo sapiens, UniProt P49768, T281P); details: for remaining activity at 0.002 µM / remaining activity at 0.01 µM / remaining activity at 0.04 µM / remaining activity at 0.2 µM / remaining activity at 1 µM / remaining activity at 10 µM: 4 h; for remaining activity at 0.002 µM / remaining activity at 0.01 µM / remaining activity at 0.04 µM / remaining activity at 0.2 µM / remaining activity at 1 µM / remaining activity at 10 µM / Caculated Aβ40 production / raw data from α-Lisa reading: PS1 T281P
# T2 construct: made in house
# Experimental: as §1
# [3] = biological target: T3, PS1 TL281-282PI γ-secretase complex (Homo sapiens, UniProt P49768, L282I/T281P); details: for remaining activity at 0.002 µM: MRK-560 2 nM; for remaining activity at 0.01 µM: MRK-560 10 nM; for remaining activity at 0.04 µM: MRK-560 40 nM; for remaining activity at 0.2 µM: MRK-560 200 nM; for remaining activity at 1 µM: MRK-560 1 μM
# T3 construct: made in house
# Experimental: as §1
# [4] = MRK-560 2 nM, mean of 3 replicates, read-out: Normalized production (control=1), Mean
# [5] = MRK-560 2 nM, replicates, read-out: Normalized production (control=1)
# [6] = MRK-560 10 nM, mean of 3 replicates, read-out: Normalized production (control=1), Mean
# [7] = MRK-560 10 nM, replicates, read-out: Normalized production (control=1)
# [8] = MRK-560 40 nM, mean of 3 replicates, read-out: Normalized production (control=1), Mean
# [9] = MRK-560 40 nM, replicates, read-out: Normalized production (control=1)
# [10] = MRK-560 200 nM, mean of 3 replicates, read-out: Normalized production (control=1), Mean
# [11] = MRK-560 200 nM, replicates, read-out: Normalized production (control=1)
# [12] = MRK-560 1 μM, mean of 3 replicates, read-out: Normalized production (control=1), Mean
# [13] = MRK-560 1 μM, replicates, read-out: Normalized production (control=1)
# [14] = MRK-560 10 μM, mean of 3 replicates, read-out: Normalized production (control=1), Mean
# [15] = MRK-560 10 μM, replicates, read-out: Normalized production (control=1)
# [16] = 4 h, PS1TL 281 282PI, mean of 3 replicates, read-out: Normalized production (control=1), Mean
# [17] = 4 h, PS1TL 281 282PI, replicates, read-out: Normalized production (control=1)
smiles,measurement,setting,value
"O=S(=O)(NC1CCC(c2cc(F)ccc2F)(S(=O)(=O)c2ccc(Cl)cc2)CC1)C(F)(F)F (stereo not drawn) [MRK-560, N-[cis-4-[(4-chlorophenyl)sulfonyl]-4-(2,5-difluorophenyl)cyclohexyl]-1,1,1-trifluoromethanesulfonamide]",IC50,[1],90 ± 10 nM
same,remaining activity at 0.002 µM,[1]; [4],111%
same,remaining activity at 0.002 µM,[1]; [5],110%
same,remaining activity at 0.01 µM,[1]; [6],108%
same,remaining activity at 0.01 µM,[1]; [7],104%
same,remaining activity at 0.04 µM,[1]; [8],83.5%
same,remaining activity at 0.04 µM,[1]; [9],83.1%
same,remaining activity at 0.2 µM,[1]; [10],28.8%
same,remaining activity at 0.2 µM,[1]; [11],28.2%
same,remaining activity at 1 µM,[1]; [12],3.17%
same,remaining activity at 1 µM,[1]; [13],3.28%
same,remaining activity at 10 µM,[1]; [14],0.83%
same,remaining activity at 10 µM,[1]; [15],0.9%
same,Caculated Aβ40 production,"[1]; MRK-560 2 nM, replicates",281.9088 and 286.0465 and 285.6579
same,raw data from α-Lisa reading,"[1]; MRK-560 2 nM, replicates",44163 and 44760 and 44704
same,Caculated Aβ40 production,"[1]; MRK-560 10 nM, replicates",268.0187 and 289.2618 and 277.4973
same,raw data from α-Lisa reading,"[1]; MRK-560 10 nM, replicates",42149 and 45223 and 43525
same,Caculated Aβ40 production,"[1]; MRK-560 40 nM, replicates",213.5518 and 216.6350 and 213.7318
same,raw data from α-Lisa reading,"[1]; MRK-560 40 nM, replicates",34102 and 34564 and 34129
same,Caculated Aβ40 production,"[1]; MRK-560 200 nM, replicates",72.5045 and 76.2274 and 73.8042
same,raw data from α-Lisa reading,"[1]; MRK-560 200 nM, replicates",12089 and 12693 and 12300
same,Caculated Aβ40 production,"[1]; MRK-560 1 μM, replicates",8.4328 and 8.0651 and 7.9702
same,raw data from α-Lisa reading,"[1]; MRK-560 1 μM, replicates",1487 and 1425 and 1409
same,Caculated Aβ40 production,"[1]; MRK-560 10 μM, replicates",2.3045 and 1.9913 and 2.1331
same,raw data from α-Lisa reading,"[1]; MRK-560 10 μM, replicates",452 and 399 and 423
same,IC50,[2],55 ± 6 nM
same,remaining activity at 0.002 µM,[2]; [4],99.3%
same,remaining activity at 0.002 µM,[2]; [5],100%
same,remaining activity at 0.01 µM,[2]; [6],92.8%
same,remaining activity at 0.01 µM,[2]; [7],94.3%
same,remaining activity at 0.04 µM,[2]; [8],62.2%
same,remaining activity at 0.04 µM,[2]; [9],65.5%
same,remaining activity at 0.2 µM,[2]; [10],10.6%
same,remaining activity at 0.2 µM,[2]; [11],11%
same,remaining activity at 1 µM,[2]; [12],1.23%
same,remaining activity at 1 µM,[2]; [13],1.29%
same,remaining activity at 10 µM,[2]; [14],0.61%
same,remaining activity at 10 µM,[2]; [15],0.59%
same,Caculated Aβ40 production,"[2]; MRK-560 2 nM, replicates",345.9981 and 336.9974 and 315.8225
same,raw data from α-Lisa reading,"[2]; MRK-560 2 nM, replicates",52003 and 49017 and 53262
same,Caculated Aβ40 production,"[2]; MRK-560 10 nM, replicates",309.2203 and 316.1610 and 308.6161
same,raw data from α-Lisa reading,"[2]; MRK-560 10 nM, replicates",49065 and 47993 and 48079
same,Caculated Aβ40 production,"[2]; MRK-560 40 nM, replicates",209.7683 and 219.6031 and 196.3837
same,raw data from α-Lisa reading,"[2]; MRK-560 40 nM, replicates",35008 and 31515 and 33534
same,Caculated Aβ40 production,"[2]; MRK-560 200 nM, replicates",35.0895 and 36.8617 and 34.7461
same,raw data from α-Lisa reading,"[2]; MRK-560 200 nM, replicates",6240 and 5889 and 5946
same,Caculated Aβ40 production,"[2]; MRK-560 1 μM, replicates",4.0253 and 4.3330 and 4.0016
same,raw data from α-Lisa reading,"[2]; MRK-560 1 μM, replicates",795 and 739 and 743
same,Caculated Aβ40 production,"[2]; MRK-560 10 μM, replicates",2.0149 and 1.9676 and 2.1390
same,raw data from α-Lisa reading,"[2]; MRK-560 10 μM, replicates",395 and 424 and 403
same,IC50,[3],195 ± 16 nM
same,remaining activity at 0.002 µM,[3]; [16],116%
same,remaining activity at 0.002 µM,[3]; [17],115%
same,remaining activity at 0.01 µM,[3]; [16],112%
same,remaining activity at 0.01 µM,[3]; [17],113%
same,remaining activity at 0.04 µM,[3]; [16],105%
same,remaining activity at 0.04 µM,[3]; [17],103%
same,remaining activity at 0.2 µM,[3]; [16],57.2%
same,remaining activity at 0.2 µM,[3]; [17],59.1%
same,remaining activity at 1 µM,[3]; [16],11.1%
same,remaining activity at 1 µM,[3]; [17],11%
same,remaining activity at 10 µM,"[3]; 4 h, PS1TL 281 282PI, MRK-560 10 μM, mean of 3 replicates, read-out: Normalized production (control=1), Mean",1.33%
